Tests used:
Experiment in all cases: relative viability (nuclei count vs DMSO), 5 days (fraction); higher = more cells survive
[1] = compound: C1=CC2=C(C=C(C(=C2N=C1)O)N=NC3=CC4=C(C=C3)C=C(C=C4)S(=O)(=O)O)S(=O)(=O)O + Cc1cc(Nc2cc(N3CCN(C)CC3)nc(Sc3ccc(NC(=O)C4CC4)cc3)n2)n[nH]1 [Tozasertib] (partner 0.1 µM)
Summary of the method: (§1)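 Five library-drug doses in √10 steps were combined with a fixed anchor-drug dose, or a single drug was given alone, by pin tool to lung cancer cell lines in 1536-well plates the day after seeding. Nuclei were stained and counted after 5 days. Relative viability is the nuclei count in treated wells over that in vehicle wells, taken as the median of duplicate plates.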

[2] = compound: C1=CC2=C(C=C(C(=C2N=C1)O)N=NC3=CC4=C(C=C3)C=C(C=C4)S(=O)(=O)O)S(=O)(=O)O + NC(=O)Nc1cc(-c2cccc(F)c2)sc1C(=O)N[C@H]1CCCNC1 [AZD7762] (partner 0.2 µM)
Summary of the method: as §1

AT-7519 + Phenformin = compound: O=C(NC1CCNCC1)c1n[nH]cc1NC(=O)c1c(Cl)cccc1Cl [AT-7519] + N=C(N)NC(=N)NCCc1ccccc1 [Phenformin] (partner 250 µM)
Summary of the method: as §1

[3] = compound: C1=CC2=C(C=C(C(=C2N=C1)O)N=NC3=CC4=C(C=C3)C=C(C=C4)S(=O)(=O)O)S(=O)(=O)O + Nc1nc2[nH]cc(CCc3ccc(C(=O)N[C@@H](CCC(=O)O)C(=O)O)cc3)c2c(=O)[nH]1 [Pemetrexed] (partner 0.2 µM)
Summary of the method: as §1

Row | Cell Line | relative viability ([1]; first compound 0.08 µM) | relative viability ([1]; first compound 0.253 µM) | relative viability ([1]; first compound 0.8 µM) | relative viability ([1]; first compound 2.53 µM) | relative viability ([1]; first compound 8 µM) | relative viability ([2]; first compound 0.08 µM) | relative viability ([2]; first compound 0.253 µM) | relative viability ([2]; first compound 0.8 µM) | relative viability ([2]; first compound 2.53 µM) | relative viability ([2]; first compound 8 µM) | relative viability (AT-7519 + Phenformin; first compound 0.01 µM) | relative viability (AT-7519 + Phenformin; first compound 0.03162 µM) | relative viability (AT-7519 + Phenformin; first compound 0.3162 µM) | relative viability (AT-7519 + Phenformin; first compound 1 µM) | relative viability ([3]; first compound 0.08 µM) | relative viability ([3]; first compound 0.253 µM) | relative viability ([3]; first compound 0.8 µM) | relative viability ([3]; first compound 2.53 µM) | relative viability ([3]; first compound 8 µM)
1 | HCC-827 | 0.448 | 0.397 | 0.418 | 0.448 | 0.432 | 0.184 | 0.279 | 0.235 | 0.192 | 0.246 | 0.457 | 0.437 | 0.341 | 0.246 | 0.269 | 0.21 | 0.296 | 0.224 | 0.246
2 | HOP-62 | 0.458 | 0.381 | 0.384 | 0.403 | 0.363 | 0.715 | 0.34 | 0.607 | 0.731 | 0.57 | 0.706 | 0.655 | 0.512 | 0.679 | 0.263 | 0.279 | 0.312 | 0.349 | 0.325
3 | LC-2-ad | 0.518 | 0.476 | 0.376 | 0.519 | 0.325 | 0.894 | 0.802 | 0.829 | 0.847 | 0.796 | 0.522 | 0.573 | 0.498 | 0.413 | 0.28 | 0.278 | 0.265 | 0.261 | 0.274
4 | LCLC-97TM1 | 0.279 | 0.203 | 0.196 | 0.338 | 0.221 | 0.354 | 0.22 | 0.292 | 0.214 | 0.314 | 0.476 | 0.456 | 0.42 | 0.289 | 0.173 | 0.18 | 0.157 | 0.156 | 0.161
5 | LCLC-103H | 0.514 | 0.504 | 0.457 | 0.477 | 0.501 | 0.85 | 0.801 | 0.758 | 0.774 | 0.891 | 0.32 | 0.296 | 0.313 | 0.33 | 0.505 | 0.459 | 0.493 | 0.439 | 0.453
6 | LK-2 | 0.174 | 0.189 | 0.18 | 0.178 | 0.148 | 0.549 | 0.345 | 0.369 | 0.452 | 0.285 | 0.278 | 0.482 | – | 0.307 | 0.312 | 0.224 | 0.212 | 0.269 | 0.283
7 | LOU-NH91 | 0.77 | 0.667 | 0.681 | 0.748 | 0.734 | 0.779 | 0.75 | 0.737 | 0.794 | 0.676 | 0.674 | 0.743 | 0.677 | 0.631 | 0.365 | 0.38 | 0.393 | 0.361 | 0.36
8 | NCI-H520 | 0.428 | 0.454 | 0.439 | 0.369 | 0.42 | – | – | – | – | – | 0.66 | 0.669 | 0.422 | 0.257 | 0.696 | 0.706 | 0.637 | 0.715 | 0.692
9 | NCI-H661 | 0.333 | 0.347 | 0.341 | 0.369 | 0.343 | – | – | – | – | – | 0.277 | 0.27 | 0.249 | 0.189 | 0.891 | 0.925 | 0.893 | 0.945 | 0.901

Reference: the supplement of paper PMC10307832
